The viscosity is the resistance of a fluid to flow. As a reminder, the speed of sound is how fast a sound wave travels through the sample. As a reminder, the mass density is the mass of a sample divided by its volume.

For data set [1] the following is noted: 101.33 kPa, Liquid; for viscosity: Capillary tube (Ostwald / Ubbelohde) method; for speed of sound: Linear variable-path acoustic interferometer; for mass density: Pycnometric method.
The nature of data set [2]: mn = molality of the nth substance listed, in mol/kg. The conditions noted are these: 101 kPa, Liquid, m2 = 0; for viscosity: Capillary tube (Ostwald / Ubbelohde) method; for speed of sound: Linear variable-path acoustic interferometer; for mass density: Pycnometric method.

Molecules are shown by their SMILES. Numbers after ± are expanded uncertainties.

As for `CN(C)C=O` [dimethylformamide], the viscosity in data set [1] (303 K) stood at 0.7588 ± 0.15 mPa·s; in data set [1] (308 K), 0.7056 ± 0.14 mPa·s; in data set [1] (313 K) it was 0.6353 ± 0.13 mPa·s. Further, the figures for the speed of sound in data set [1] (303 K), in data set [1] (308 K) and in data set [1] (313 K) were 1442 ± 6 m/s, 1432 ± 5.9 m/s and 1402 ± 5.8 m/s, respectively. The mass density was found to be 941.7 ± 0.7 kg/m3 in data set [1] (303 K), 937.2 ± 0.7 kg/m3 in data set [1] (308 K) and 933.6 ± 0.6 kg/m3 in data set [1] (313 K).

For the compound `CN(C)C=O` [dimethylformamide] + CC(=O)N1N=C(CSc2nc3ccccc3c(=O)n2-c2ccccc2C)OC1(C)c1ccc(C)cc1, the viscosity in data set [2] (303 K) is on record as 0.7588 ± 0.15 mPa·s; in data set [2] (308 K), 0.7056 ± 0.14 mPa·s; in data set [2] (313 K), 0.6353 ± 0.13 mPa·s. Besides, the speed of sound in data set [2] (303 K) turned out to be 1442 ± 6 m/s; in data set [2] (308 K), 1432 ± 5.9 m/s; in data set [2] (313 K), 1402 ± 5.8 m/s. In addition, the results for the mass density in data set [2] (303 K), in data set [2] (308 K) and in data set [2] (313 K) were 941.7 ± 0.7 kg/m3, 937.2 ± 0.7 kg/m3 and 933.6 ± 0.6 kg/m3, respectively.

As to `CN(C)C=O` [dimethylformamide] + COc1ccc(C2(C)OC(CSc3nc4ccccc4c(=O)n3-c3ccccc3C)=NN2C(C)=O)cc1, the viscosity stood at 0.7588 ± 0.15 mPa·s in data set [2] (303 K), 0.7056 ± 0.14 mPa·s in data set [2] (308 K) and 0.6353 ± 0.13 mPa·s in data set [2] (313 K). Further, the speed of sound is recorded as 1442 ± 6 m/s in data set [2] (303 K), 1432 ± 5.9 m/s in data set [2] (308 K) and 1402 ± 5.8 m/s in data set [2] (313 K). For the same compound, the mass density in data set [2] (303 K) stood at 941.7 ± 0.7 kg/m3; in data set [2] (308 K) it was 937.2 ± 0.7 kg/m3; in data set [2] (313 K) it was 933.6 ± 0.6 kg/m3.

Turning to `ClC(Cl)Cl` [trichloromethane], the viscosity in data set [1] (303 K) amounted to 0.6628 ± 0.13 mPa·s; in data set [1] (308 K) it was 0.6279 ± 0.13 mPa·s; in data set [1] (313 K), 0.5781 ± 0.12 mPa·s. Also, the speed of sound was 960 ± 4 m/s in data set [1] (303 K), 950.8 ± 4 m/s in data set [1] (308 K) and 932.4 ± 3.9 m/s in data set [1] (313 K). For the same compound, the mass density turned out to be 1475.3 ± 20 kg/m3 in data set [1] (303 K), 1470.8 ± 20 kg/m3 in data set [1] (308 K) and 1465.8 ± 20 kg/m3 in data set [1] (313 K).

Take `ClC(Cl)Cl` [trichloromethane] + CC(=O)N1N=C(CSc2nc3ccccc3c(=O)n2-c2ccccc2C)OC1(C)c1ccc(C)cc1: in data set [2] (303 K), the viscosity was determined as 0.6628 ± 0.13 mPa·s, the speed of sound is recorded as 960 ± 4 m/s and the mass density is given as 1475.3 ± 20 kg/m3. Also, in data set [2] (308 K), the viscosity is on record as 0.6279 ± 0.13 mPa·s, the speed of sound is 950.8 ± 4 m/s and the mass density is 1470.8 ± 20 kg/m3. Moreover, in data set [2] (313 K), the viscosity turned out to be 0.5781 ± 0.12 mPa·s, the speed of sound is 932.4 ± 3.9 m/s and the mass density came out at 1465.8 ± 20 kg/m3.

Regarding `ClC(Cl)Cl` [trichloromethane] + COc1ccc(C2(C)OC(CSc3nc4ccccc4c(=O)n3-c3ccccc3C)=NN2C(C)=O)cc1, in data set [2] (303 K), the viscosity stood at 0.6628 ± 0.13 mPa·s, the speed of sound is listed as 960 ± 4 m/s and the mass density is given as 1475.3 ± 20 kg/m3. Also, in data set [2] (308 K), the viscosity was found to be 0.6279 ± 0.13 mPa·s, the speed of sound is recorded as 950.8 ± 4 m/s and the mass density was 1470.8 ± 20 kg/m3. In addition, in data set [2] (313 K), the viscosity was determined as 0.5781 ± 0.12 mPa·s, the speed of sound turned out to be 932.4 ± 3.9 m/s and the mass density came to 1465.8 ± 20 kg/m3.
